Experimental data reported in patent US20120035214A1, “RENIN INHIBITORS” (Merck Canada Inc., priority 2009, published 2012).

Columns and labels:
[1] = biological target: T1, Human recombinant renin (Homo sapiens, UniProt P00797); experiment: Inhibition of human recombinant renin (QFRET, buffer); assay type: biochemical; conditions: buffer: 50 mM MOPS pH 7.4, 100 mM NaCl, 0.002% Tween 20; 37° C., 3 hours
T1 construct: purchased Proteos
T1 sequence (P00797 67-406): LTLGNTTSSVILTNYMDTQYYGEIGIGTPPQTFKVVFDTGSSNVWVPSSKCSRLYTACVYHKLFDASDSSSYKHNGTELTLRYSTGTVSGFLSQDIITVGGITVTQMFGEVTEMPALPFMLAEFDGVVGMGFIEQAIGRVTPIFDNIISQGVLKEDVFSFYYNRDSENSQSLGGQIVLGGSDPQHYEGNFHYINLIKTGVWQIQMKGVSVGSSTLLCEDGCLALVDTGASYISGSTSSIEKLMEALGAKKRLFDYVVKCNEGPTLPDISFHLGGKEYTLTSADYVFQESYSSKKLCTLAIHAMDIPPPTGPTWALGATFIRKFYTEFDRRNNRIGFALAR
Protocol: Inhibition of Human Recombinant Renin
Human recombinant renin (Proteos) in 50 mM MOPS pH 7.4, 100 mM NaCl, 0.002% Tween 20 at a final concentration of […] is incubated with inhibitors from a 50 fold concentrated DMSO solution and 6 μM of an internally-quenched fluorescent peptide: DNP-[…]D,L-Amp (SEQ ID NO: 1); Paschalidou K. et al., Biochem J., 2004, 382, 1031). The reactions take place in a Costar 384 well black plate (#3573) at 37° C. for 3 hours. Fluorescence is measured at times 0 and 3 hours with a SpectraMax Gemini EM reader set at an excitation wavelength of 328 nm and at an emission wavelength of 388 nm. Background fluorescence at t=0 is subtracted from the measurement at t=3 hours. Inhibitory activity of the compounds is expressed as IC50.

[2] = biological target: T2, recombinant renin in human plasma (Homo sapiens, UniProt P00797); experiment: Inhibition of renin in human plasma (QFRET, plasma); assay type: biochemical; conditions: human EDTA plasma with 1 nM recombinant renin added; 37° C., 1 hour
T2 construct: purchased Proteos
T2 sequence (P00797 67-406): T1 sequence (P00797 67-406)
Protocol: Inhibition of Renin in Human Plasma
Human EDTA-collected plasma is rapidly thawed in warm water and centrifuged at 2900 g for 15 minutes at 4° C. The supernatant is collected and recombinant renin (Proteos) is added at a final concentration of 1 nM. The plasma is transferred to a Costar black 384 well plate (#3573). Renin inhibitors are added from a 17.5 fold concentrated DMSO solution and pre-incubated at 37° C. for 10 minutes. The internally-quench fluorescent peptide QXL520™-[…](5-FAM) (Anaspec), SEQ ID NO: 2, is diluted in 3M Tris pH 7.2, 200 mM EDTA and added to the plasma. The final concentrations are: 6 μM substrate, 342 mM Tris, 23 mM EDTA. The plate is incubated at 37° C. for 1 hour. The plate is read in a SpectraMax Gemini EM reader set at an excitation wavelength of 490 nm and an emission wavelength of 520 nm at times 0 and 1 hour. Background fluorescence at t=0 is subtracted from the measurement at t=1 hour. Inhibitory activity of the compounds is expressed as IC50.

Row | Structure (SMILES) | IC50 [1] | IC50 [2]
1 | CC(=O)NCCc1ccccc1-c1onc([C@H]2CNCC[C@]2(O)c2ccc(COCCOC(C)C)cc2)c1Br [Structure 115] | 6.5 nM | 16 nM
2 | CC(=O)NCCc1ccccc1-c1ccc([C@@H]2CNCC[C@H]2c2cccnc2)c(C)c1 [Structure 5] | 1410 nM | 7280 nM
3 | COCCCc1ccccc1-c1ccc([C@H]2CNCC[C@@H]2c2cccnc2)c(Cl)c1 (racemic) [Structure 11] | 2.7 nM | 66 nM
4 | CC(=O)NCCc1ccccc1-c1onc([C@H]2CNCC[C@]2(O)c2ccc(C)c(F)c2)c1Br [Structure 105] | 4.9 nM | 29 nM
5 | O[C@]1(c2ccc(F)c(F)c2)CCNC[C@@H]1c1onc(-c2c(Cl)cccc2Cl)c1Br [Structure 70] | 3.7 nM | 130 nM
6 | CCC(=O)NCCc1ccccc1-c1ccc([C@H]2CNCC[C@@H]2c2cc(F)cc(F)c2)c(C)c1 (racemic) [Structure 18] | 0.65 nM | 1.3 nM
7 | COCCC[C@H](CNC(C)=O)c1ccccc1-c1onc([C@H]2CNCC[C@]2(O)c2ccc(F)c(F)c2)c1Br [Structure 98] | 0.58 nM | 2.2 nM
8 | CC(=O)NCCc1cccnc1-c1onc([C@H]2CNCC[C@]2(O)c2ccc(F)c(F)c2)c1Br [Structure 97] | 10 nM | 89 nM
9 | Cc1cc(-c2ccccc2CCNC(=O)c2ccn(C)n2)ccc1[C@H]1CNCC[C@@H]1c1cc(F)cc(F)c1 (racemic) [Structure 23] | 26 nM | 69 nM
10 | Cc1ccccc1OCc1ccccc1-c1ccc([C@H]2CNCC[C@@H]2c2cc(F)cc(F)c2)c(C)c1 (racemic) [Structure 34] | 7.5 nM | 4980 nM
11 | CC(=O)NCCc1ccccc1-c1onc([C@H]2CNCC[C@]2(F)c2ccc(F)c(F)c2)c1Br [Structure 81] | 0.053 nM | 0.44 nM
12 | COCCCc1ccccc1-c1ccc([C@H]2CNCC[C@@H]2c2cccnc2)c(C)c1 (racemic) [Structure 2] | 18 nM | 310 nM
13 | Cc1cc(-c2ccccc2CCNC(=O)CC(F)(F)F)ccc1[C@H]1CNCC[C@@H]1c1cc(F)cc(F)c1 (racemic) [Structure 33] | 2.1 nM | 120 nM
14 | CC(=O)NCCc1ccccc1-c1ccc([C@H]2CNCC[C@]2(O)c2ccc(F)c(F)c2)c(C)c1 (racemic) [Structure 51] | 0.5 nM | 5 nM
15 | COCCCc1cccc(C)c1-c1ccc([C@H]2CNCC[C@@H]2c2cccnc2)c(C)c1 (racemic) [Structure 12] | 10 nM | 150 nM
16 | CC(=O)NCCc1ccccc1-c1ccc([C@H]2CNCC[C@@H]2c2cccnc2)c(Cl)c1 [Structure 13] | 1.5 nM | 4.1 nM

The remaining compounds from weak to strong by IC50 [1], led by results:

Row | IC50 [1] | IC50 [2] | Structure (SMILES)
17 | 2500 nM |  | O[C@]1(c2ccc(F)c(F)c2)CCNC[C@@H]1c1cc(-c2ccc(F)cc2Cl)no1 [Structure 69]
18 | 1990 nM | > 28000 nM | Cn1c(-c2ccccc2)cnc1[C@H]1CNCC[C@]1(O)c1ccc(F)c(F)c1 [Structure 92]
19 | 380 nM | 1800 nM | COCCCc1cc(OCCOC)ccc1-c1ccc([C@H]2CNCC[C@@H]2c2cccnc2)c(C)c1 (racemic) [Structure 6]
20 | 71 nM | 1810 nM | Cc1cc(-c2ccccc2CCNS(C)(=O)=O)ccc1[C@H]1CNCC[C@@H]1c1cc(F)cc(F)c1 (racemic) [Structure 19]
21 | 2.1 nM | 3.4 nM | CC(=O)NCCc1ccccc1-c1ccc([C@H]2CNCC[C@@H]2c2ccn(C)c(=O)c2)c(Cl)c1 [Structure 59]
22 | 1.2 nM | 3.9 nM | COCCC[C@@H](CNC(C)=O)c1ccccc1-c1onc([C@H]2CNCC[C@]2(O)c2ccc(F)c(F)c2)c1Br [Structure 100]
23 | 0.55 nM | 94 nM | Cc1cc(-c2ccccc2COc2cccnc2)ccc1[C@H]1CNCC[C@@H]1c1cc(F)cc(F)c1 (racemic) [Structure 36]
24 | 0.15 nM | 0.65 nM | Fc1ccc([C@H]2CCNC[C@@H]2c2nnc(-c3cccc(Cl)c3Cl)n2C2CC2)cc1F [Structure 95]
